Measurements published in patent US20120003661A1, “METHODS AND DEVICES FOR THE SELECTIVE DETECTION OF MICROORGANISMS” (C3 JIAN, INC., priority 2010, published 2012).
“Also recorded” adds a separate entry of the source. Ends that are not written are not given here.

How the values were obtained:
MRSA = assay: MIC of antimicrobial peptides (Table 4); type: cell-based, Methicillin-resistant Staphylococcus aureus
A. niger = assay: MIC of antimicrobial peptides (Table 4); type: cell-based, Aspergillus niger
B. subtilis = assay: MIC of antimicrobial peptides (Table 4); type: cell-based, Bacillus subtilis; conditions: B. subtilis
S. epidermidis = assay: MIC of antimicrobial peptides (Table 4); type: cell-based, Staphylococcus epidermidis
[1] = tested on: bacteria, fungi, and/or yeasts; type: binding; conditions: microorganism(s) listed as target(s) of the targeting peptide; wrapped target lists given cell by cell
T. rubrum = assay: MIC of antimicrobial peptides (Table 4); type: cell-based, Trichophyton rubrum
C. albicans = assay: MIC of antimicrobial peptides (Table 4); type: cell-based, Candida albicans
A. baumannii = assay: MIC of antimicrobial peptides (Table 4); type: cell-based, Acinetobacter baumannii
S. mutans = assay: MIC of antimicrobial peptides (Table 4); type: cell-based, Streptococcus mutans
E. coli = assay: MIC of antimicrobial peptides (Table 4); type: cell-based, Escherichia coli
S. pneumoniae = assay: MIC of antimicrobial peptides (Table 4); type: cell-based, Streptococcus pneumoniae
P. aeruginosa = assay: MIC of antimicrobial peptides (Table 4); type: cell-based, Pseudomonas aeruginosa
C. difficile = assay: MIC of antimicrobial peptides (Table 4); type: cell-based, Clostridium difficile

Substance: RESKLIAMADMIRRRI-NH2 [PF-545]
- Organism MIC (MRSA): MRSA, 50 μM
- Organism MIC (A. niger): A. niger, 50 μM
- Organism MIC (B. subtilis): B. subtilis, 25 μM

Substance: KFQGEFTNIGQSYIVSASHMSTSLNTGK [PF-583]
- Organism MIC (MRSA): MRSA, 50 μM
- Organism MIC (S. epidermidis): S. epidermidis, 50 μM
- Target(s) [1]: C. albicans hyphae

Substance: NYAVVSHT [PF-209]
- Organism MIC (MRSA): MRSA, 50 μM

Substance: MKRRRCNWCGKLFYLEEKSKEAYCCKECRKKAKKVKK [PF-307]
- Organism MIC (T. rubrum): T. rubrum, 50 μM
- Organism MIC (B. subtilis): B. subtilis, 50 μM
- Organism MIC (C. albicans): C. albicans, 50 μM

Substance: MIRIRSPTKKKLNRNSISDWKSNTSGRFFY [PF-283]
- Organism MIC (T. rubrum): T. rubrum, 50 μM
- Organism MIC (B. subtilis): B. subtilis, 50 μM
- Organism MIC (S. epidermidis): S. epidermidis, 50 μM

Substance: LSLATFAKIFMTRSNWSLKRFNRL [PF-278]
- Organism MIC (T. rubrum): T. rubrum, 50 μM
- Organism MIC (S. epidermidis): S. epidermidis, 50 μM
- Organism MIC (C. albicans): C. albicans, 50 μM

Substance: SKFKVLRKIIIKEYKGELMLSIQKQR [PF-530]
- Organism MIC (A. baumannii): A. baumannii, 25 μM

Substance: FESKILNASKELDKEKKVNTALSFNSHQDFAKAYQNGKI [PF-606]
- Organism MIC (S. mutans): S. mutans, 50 μM
- Organism MIC (MRSA): MRSA, 50 μM
- Organism MIC (S. epidermidis): S. epidermidis, 50 μM
- Organism MIC (E. coli): E. coli, 50 μM
- Organism MIC (S. pneumoniae): S. pneumoniae, 50 μM

Substance: FIRKFLQKLHL [K-16]
- Organism MIC (S. mutans): S. mutans, 8 μM
- Organism MIC (P. aeruginosa): P. aeruginosa, 12.5 μM
- Organism MIC (MRSA): MRSA, 25 μM

Substance: SLQSQLGPCLHDQRH [PF-448]
- Organism MIC (A. niger): A. niger, 25 μM
- Organism MIC (S. pneumoniae): S. pneumoniae, 50 μM

Substance: FELVDWLETNLGKILKSKSA-NH2 [PF-522]
- Organism MIC (C. difficile): C. difficile, 25 μM

Substance: WSRVPGHSDTGWKVWHRW-NH2 [PF-547]
- Organism MIC (S. mutans): S. mutans, 12.5 μM
- Organism MIC (T. rubrum): T. rubrum, 25 μM
- Organism MIC (B. subtilis): B. subtilis, 25 μM

Substance: KFSDQIDKGQDALKDKLGDL [PF-525]
- Organism MIC (A. niger): A. niger, 50 μM
- Organism MIC (S. pneumoniae): S. pneumoniae, 50 μM

Substance: KNKKQTDILEKVKEILDKKKKTKSVGQKLY [PF-538]
- Organism MIC (A. baumannii): A. baumannii, 25 μM
- Organism MIC (C. difficile): C. difficile, 25 μM

Substance: MGIIAGIIKFIKGLIEKFTGK [PF-006]
- Organism MIC (MRSA): MRSA, 50 μM
- Organism MIC (A. baumannii): A. baumannii, 50 μM
- Organism MIC (B. subtilis): B. subtilis, 25 μM
- Target(s) [1]: S. epidermidis, M. luteus, E. coli,; also recorded: P. aeruginosa, MRSA, E. faecalis,; also recorded: C. jeikeium, C. jejuni

Substance: TKKIELKRFVDAFVKKSYENYILERELKKLIKAINEELPTK [PF-600]
- Organism MIC (E. coli): E. coli, 50 μM
- Organism MIC (S. pneumoniae): S. pneumoniae, 50 μM

Substance: VLPFPAIPLSRRRACVAAPRPRSRQRAS [PF-168]
- Organism MIC (MRSA): MRSA, 50 μM
- Organism MIC (T. rubrum): T. rubrum, 50 μM
- Organism MIC (A. niger): A. niger, 50 μM
- Target(s) [1]: yeast cells; also recorded: S. epidermidis, M. luteus, E. coli,; also recorded: C. albicans, MRSA, C. jeikeium,; also recorded: C. jejuni
